# Experimental data as given in patent publication US20220370440A1 (Lead Discovery Center GmbH, priority 2018, published 2022).
# pIC50: −log10 of the molar value.
# Legend:
# HER2 INS YVMA = target: T1, HER2 INS YVMA (Homo sapiens, UniProt P04626, INS775YVMA); experiment: Lance Kinase Activity Assay, HER2 INS YVMA (Her2 Exon 20 INSYVMA Lance); assay type: biochemical; conditions: biochemical Lance assay
# T1 construct: purchased DPF
# In short: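 Kinase phosphorylates a ULight-labelled peptide substrate; Eu anti-phospho antibody gives TR-FRET (ex 340 nm, em 665/615 nm). Compounds in 1:3 serial dilution over 8 steps, reaction started with ATP, 1 h at room temperature, stopped with EDTA-containing detection mix for 1 h. IC50 from sigmoidal dose-response curves.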
# EGFR T790ML858R = EGFR T790ML858R (Homo sapiens, UniProt P00533, L858R/T790M); experiment: EGFR T790ML858R Lance assay; assay type: biochemical
# Sequence of EGFR T790ML858R (P00533 25-1210 T790M/L858R): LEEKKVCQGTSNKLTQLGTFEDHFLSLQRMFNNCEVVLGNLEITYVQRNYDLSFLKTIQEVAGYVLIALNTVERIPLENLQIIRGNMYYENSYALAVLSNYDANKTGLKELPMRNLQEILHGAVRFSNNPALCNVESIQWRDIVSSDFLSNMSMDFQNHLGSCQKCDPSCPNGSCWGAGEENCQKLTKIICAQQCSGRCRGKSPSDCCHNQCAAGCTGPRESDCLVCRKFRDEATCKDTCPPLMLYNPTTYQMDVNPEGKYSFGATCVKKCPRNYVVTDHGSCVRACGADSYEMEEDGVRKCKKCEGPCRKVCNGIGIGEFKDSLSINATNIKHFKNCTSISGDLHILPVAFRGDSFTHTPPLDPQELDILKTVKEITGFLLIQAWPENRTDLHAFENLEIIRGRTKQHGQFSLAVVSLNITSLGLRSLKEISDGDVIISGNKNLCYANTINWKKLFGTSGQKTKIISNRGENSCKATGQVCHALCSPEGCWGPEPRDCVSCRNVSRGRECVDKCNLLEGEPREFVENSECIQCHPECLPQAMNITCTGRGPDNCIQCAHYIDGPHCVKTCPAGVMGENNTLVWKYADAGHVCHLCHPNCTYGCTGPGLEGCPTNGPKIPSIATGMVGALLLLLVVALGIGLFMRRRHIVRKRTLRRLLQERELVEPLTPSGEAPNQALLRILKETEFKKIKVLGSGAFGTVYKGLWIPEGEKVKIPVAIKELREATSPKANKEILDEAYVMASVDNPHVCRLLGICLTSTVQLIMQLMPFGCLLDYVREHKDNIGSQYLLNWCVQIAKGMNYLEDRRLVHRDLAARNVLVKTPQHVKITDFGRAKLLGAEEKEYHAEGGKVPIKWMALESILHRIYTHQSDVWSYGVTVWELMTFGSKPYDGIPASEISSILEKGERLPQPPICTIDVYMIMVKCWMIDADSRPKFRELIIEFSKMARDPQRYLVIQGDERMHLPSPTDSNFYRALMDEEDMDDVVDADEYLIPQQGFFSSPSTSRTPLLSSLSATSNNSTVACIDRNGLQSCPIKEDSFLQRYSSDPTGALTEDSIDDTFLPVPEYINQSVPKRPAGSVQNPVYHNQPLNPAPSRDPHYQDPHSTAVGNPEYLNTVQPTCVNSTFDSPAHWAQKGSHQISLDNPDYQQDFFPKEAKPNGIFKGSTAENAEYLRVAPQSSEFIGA
# Experimental: (§1) Inhibition is indicated as […] [nM] (“−”=not measured). Compounds having an activity designated as “A” provided an IC50≤100 nM; compounds having an activity designated as “B” provided an 100 nM<IC50≤500 nM; compounds having an activity designated as “C” provided an 500 nM<IC50≤1000 nM; compounds having an activity designated as “D” provided an 1000 nM<IC50≤100000 nM; and compounds having an activity designated as “E” provided an IC50>10000 nM.
# [1] = target: Her2 Exon 20 INSYVMA Ba/F3 (Homo sapiens, UniProt P04626, DUP772-775, cells depend on it); experiment: Her2 Exon 20 INSYVMA Ba/F3 CellTiter-Glo; assay type: cell-based; conditions: CellTiter-Glo, 72 h, read-out: Her2 Exon 20 INSYVMA Ba/F3 CTG IC50
# Sequence of Her2 Exon 20 INSYVMA Ba/F3 (P04626 with tags, fused parts or gaps DUP772-775): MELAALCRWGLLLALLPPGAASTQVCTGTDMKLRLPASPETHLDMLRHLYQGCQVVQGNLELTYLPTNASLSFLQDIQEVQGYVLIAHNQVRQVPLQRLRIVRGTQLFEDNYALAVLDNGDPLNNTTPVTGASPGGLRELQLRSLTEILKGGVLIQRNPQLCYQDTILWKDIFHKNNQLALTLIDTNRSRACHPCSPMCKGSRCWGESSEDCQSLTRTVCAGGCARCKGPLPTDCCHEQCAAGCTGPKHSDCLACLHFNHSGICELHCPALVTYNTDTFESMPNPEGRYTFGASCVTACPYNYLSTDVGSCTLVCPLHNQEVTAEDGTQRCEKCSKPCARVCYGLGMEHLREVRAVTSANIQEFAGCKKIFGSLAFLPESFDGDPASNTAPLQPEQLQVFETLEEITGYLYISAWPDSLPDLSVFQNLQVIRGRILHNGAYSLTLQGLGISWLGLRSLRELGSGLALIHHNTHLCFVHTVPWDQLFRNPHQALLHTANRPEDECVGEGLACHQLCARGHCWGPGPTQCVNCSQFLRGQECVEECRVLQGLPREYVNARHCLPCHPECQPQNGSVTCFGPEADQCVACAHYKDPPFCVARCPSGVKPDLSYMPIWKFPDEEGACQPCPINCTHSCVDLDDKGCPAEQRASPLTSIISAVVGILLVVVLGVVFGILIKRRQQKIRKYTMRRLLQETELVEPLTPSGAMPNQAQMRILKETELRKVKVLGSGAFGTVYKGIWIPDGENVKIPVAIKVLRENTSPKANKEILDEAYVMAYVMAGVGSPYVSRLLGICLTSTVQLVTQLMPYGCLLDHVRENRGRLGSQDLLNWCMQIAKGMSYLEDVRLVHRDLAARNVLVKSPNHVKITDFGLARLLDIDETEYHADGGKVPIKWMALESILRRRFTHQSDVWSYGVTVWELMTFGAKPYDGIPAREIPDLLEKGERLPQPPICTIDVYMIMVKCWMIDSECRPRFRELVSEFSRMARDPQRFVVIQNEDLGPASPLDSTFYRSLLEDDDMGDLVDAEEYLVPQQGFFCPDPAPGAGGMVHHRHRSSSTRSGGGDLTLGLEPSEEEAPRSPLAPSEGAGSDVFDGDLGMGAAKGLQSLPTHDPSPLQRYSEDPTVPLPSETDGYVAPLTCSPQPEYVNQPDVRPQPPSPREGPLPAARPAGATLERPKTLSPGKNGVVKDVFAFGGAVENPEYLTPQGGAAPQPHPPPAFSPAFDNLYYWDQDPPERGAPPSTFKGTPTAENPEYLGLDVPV
# In short: (§2)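 Ba/F3 cells dependent on the mutant kinase, seeded and grown 24 h, then treated with compound for 72 h at 37 °C, 5% CO2. Viability by CellTiter-Glo ATP luminescence versus DMSO and 10 μM staurosporine controls; IC50 from dose-response fit, plates accepted at Z′ ≥0.5; bins A ≤100 nM to E >10000 nM.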
# H1975 = H1975 CellTiter-Glo; assay type: cell-based; conditions: Homo sapiens, NCI-H1975; 72 h compound incubation; read-out: H1975 CTG IC50
# In short: (§3)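 Cells were seeded, left 24 h at 37° C. and 5% CO2, then exposed to compounds in DMSO at different concentrations for a further 72 h. Viability was read as ATP-dependent luminescence (CellTiter-Glo), and IC50 values were obtained from dose-response fits against DMSO and 10 μM Staurosporine controls.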
# EGFR wt = EGFR wt (Homo sapiens, UniProt P00533); experiment: EGFR wt Lance assay; assay type: biochemical
# Experimental: as §1
# [2] = target: EGFR Exon 20 INSNPH Ba/F3 (Homo sapiens, UniProt P00533, DUP771-773, cells depend on it); experiment: EGFR Exon 20 INSNPH Ba/F3 CellTiter-Glo; assay type: cell-based; conditions: CellTiter-Glo, 72 h, read-out: EGFR Exon 20 INSNPH Ba/F3 CTG IC50
# Sequence of EGFR Exon 20 INSNPH Ba/F3 (P00533 with tags, fused parts or gaps DUP771-773): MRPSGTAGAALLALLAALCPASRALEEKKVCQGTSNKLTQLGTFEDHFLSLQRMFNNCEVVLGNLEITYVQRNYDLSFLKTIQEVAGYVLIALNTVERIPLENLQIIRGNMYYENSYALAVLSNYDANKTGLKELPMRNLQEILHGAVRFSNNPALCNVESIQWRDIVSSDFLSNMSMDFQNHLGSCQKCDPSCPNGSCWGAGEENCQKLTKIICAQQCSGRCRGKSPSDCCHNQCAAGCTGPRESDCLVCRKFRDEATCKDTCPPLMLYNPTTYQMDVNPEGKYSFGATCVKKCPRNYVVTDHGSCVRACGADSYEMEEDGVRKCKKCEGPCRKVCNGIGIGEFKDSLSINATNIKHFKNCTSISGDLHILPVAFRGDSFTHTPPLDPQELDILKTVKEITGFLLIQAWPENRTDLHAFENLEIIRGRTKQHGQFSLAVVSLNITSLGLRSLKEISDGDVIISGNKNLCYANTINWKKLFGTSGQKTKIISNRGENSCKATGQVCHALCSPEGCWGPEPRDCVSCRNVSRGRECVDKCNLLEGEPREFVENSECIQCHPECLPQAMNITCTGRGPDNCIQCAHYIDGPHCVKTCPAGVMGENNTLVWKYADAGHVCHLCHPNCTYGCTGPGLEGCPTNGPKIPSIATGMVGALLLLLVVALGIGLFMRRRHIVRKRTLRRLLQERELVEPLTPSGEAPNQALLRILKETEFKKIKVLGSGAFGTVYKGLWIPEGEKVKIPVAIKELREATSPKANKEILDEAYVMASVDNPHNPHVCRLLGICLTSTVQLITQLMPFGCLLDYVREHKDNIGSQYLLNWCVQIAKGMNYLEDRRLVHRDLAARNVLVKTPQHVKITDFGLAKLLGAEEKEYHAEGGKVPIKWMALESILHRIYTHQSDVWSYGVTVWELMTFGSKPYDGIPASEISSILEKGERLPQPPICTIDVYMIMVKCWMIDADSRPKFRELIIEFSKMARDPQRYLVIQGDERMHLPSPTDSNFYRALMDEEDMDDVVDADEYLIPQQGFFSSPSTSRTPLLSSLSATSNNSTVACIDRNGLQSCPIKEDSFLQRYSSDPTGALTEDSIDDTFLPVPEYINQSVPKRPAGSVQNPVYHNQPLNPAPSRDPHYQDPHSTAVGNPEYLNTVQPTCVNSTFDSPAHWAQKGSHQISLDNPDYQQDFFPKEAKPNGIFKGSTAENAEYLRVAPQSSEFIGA
# In short: as §2
# A431 = A431 CellTiter-Glo; assay type: cell-based; conditions: Homo sapiens, A-431; 72 h compound incubation; read-out: A431 CTG IC50
# In short: as §3
# T1 sequence (P04626 with tags, fused parts or gaps INS775YVMA): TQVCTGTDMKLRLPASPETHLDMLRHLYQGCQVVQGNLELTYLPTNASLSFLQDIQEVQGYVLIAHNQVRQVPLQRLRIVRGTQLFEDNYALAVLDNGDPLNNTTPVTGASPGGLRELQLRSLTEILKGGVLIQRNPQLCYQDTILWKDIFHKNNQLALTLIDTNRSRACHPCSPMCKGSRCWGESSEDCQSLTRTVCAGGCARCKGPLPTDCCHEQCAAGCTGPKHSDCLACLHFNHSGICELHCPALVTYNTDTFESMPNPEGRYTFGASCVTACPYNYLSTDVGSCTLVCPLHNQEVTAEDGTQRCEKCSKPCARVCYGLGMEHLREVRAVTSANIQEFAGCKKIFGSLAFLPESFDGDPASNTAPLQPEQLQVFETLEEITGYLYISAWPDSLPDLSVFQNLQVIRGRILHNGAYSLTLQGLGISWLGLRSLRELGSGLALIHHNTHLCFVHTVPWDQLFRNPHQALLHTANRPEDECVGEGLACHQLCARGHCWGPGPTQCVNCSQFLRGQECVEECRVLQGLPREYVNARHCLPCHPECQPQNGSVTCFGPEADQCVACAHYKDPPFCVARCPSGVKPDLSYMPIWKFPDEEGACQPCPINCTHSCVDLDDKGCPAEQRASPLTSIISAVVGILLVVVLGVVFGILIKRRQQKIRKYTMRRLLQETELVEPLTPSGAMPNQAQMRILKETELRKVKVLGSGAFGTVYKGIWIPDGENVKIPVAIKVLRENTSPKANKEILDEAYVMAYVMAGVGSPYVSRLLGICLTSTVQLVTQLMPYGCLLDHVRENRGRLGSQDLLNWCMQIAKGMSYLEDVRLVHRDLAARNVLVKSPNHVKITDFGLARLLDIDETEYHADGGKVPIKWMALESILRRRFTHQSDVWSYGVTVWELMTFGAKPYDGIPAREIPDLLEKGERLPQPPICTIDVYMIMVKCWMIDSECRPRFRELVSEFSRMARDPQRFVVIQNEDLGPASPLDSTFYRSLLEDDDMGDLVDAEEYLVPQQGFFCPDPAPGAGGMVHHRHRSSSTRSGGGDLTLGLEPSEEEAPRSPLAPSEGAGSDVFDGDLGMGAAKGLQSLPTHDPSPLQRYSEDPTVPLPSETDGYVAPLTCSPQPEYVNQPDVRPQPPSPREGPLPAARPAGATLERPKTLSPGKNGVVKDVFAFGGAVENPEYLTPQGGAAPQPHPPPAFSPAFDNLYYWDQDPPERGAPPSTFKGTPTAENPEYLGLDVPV
pIC50 (HER2 INS YVMA),pIC50 (EGFR T790ML858R),GI50 [1] [nM],pIC50 (H1975),pIC50 (EGFR wt),GI50 [2] [nM],pIC50 (A431),SMILES
≥ 7.00,≥ 7.00,1000 to 10000,4.00 to 6.00,≥ 7.00,500 to 1000,4.00 to 6.00,"C=CC(=O)Nc1cc(-c2c(-c3ccc(N4CCN(C(C)=O)CC4)cc3)[nH]c3ncc(C(=O)OC(C)C)cc23)ccc1C [Example 162, isopropyl 2-(4-(4-acetylpiperazin-1-yl)phenyl)-3-(3-acrylamido-4-methylphenyl)-1H-pyrrolo[2,3-b]pyridine-5-carboxylate]"
5.00 to 6.00,6.00 to 6.30,1000 to 10000,4.00 to 6.00,6.30 to 7.00,1000 to 10000,4.00 to 6.00,"C=CC(=O)NCc1cccc(-c2c(-c3ccc(N4CCN(C)CC4)cc3)[nH]c3ncc(C(=O)OC(C)C)cc23)c1 [Example 203, isopropyl 3-(3-(acrylamidomethyl)phenyl)-2-(4-(4-methylpiperazin-1-yl)phenyl)-1H-pyrrolo[2,3-b]pyridine-5-carboxylate 2,2,2-trifluoroacetate]"
< 5.00,4.00 to 6.00,1000 to 10000,4.00 to 6.00,6.00 to 6.30,1000 to 10000,4.00 to 6.00,"C=CC(=O)Nc1cc(-c2c(-c3cnc(N4CCOCC4)nc3)[nH]c3ncc(C(=O)OC(C)C)cc23)ccc1C [Example 173, isopropyl 3-(3-acrylamido-4-methylphenyl)-2-(2-morpholinopyrimidin-5-yl)-1H-pyrrolo[2,3-b]pyridine-5-carboxylate]"
≥ 7.00,≥ 7.00,500 to 1000,6.30 to 7.00,≥ 7.00,500 to 1000,4.00 to 6.00,"C=CS(=O)(=O)Nc1cc(-c2c(-c3ccc(N4CCN(C)CC4)cc3)[nH]c3nccc(Cl)c23)ccc1C [Example 145, N-(5-(4-chloro-2-(4-(4-methylpiperazin-1-yl)phenyl)-1H-pyrrolo[2,3-b]pyridin-3-yl)-2-methylphenyl)ethenesulfonamide 2,2,2-trifluoroacetate]"
≥ 7.00,≥ 7.00,≤ 100,6.30 to 7.00,≥ 7.00,100 to 500,4.00 to 6.00,"C=CC(=O)Nc1cc(-c2c(-c3ccc(N4CCN(C)CC4)cc3)[nH]c3ncc(OCC)cc23)ccc1C [Example 193, N-(5-(5-ethoxy-2-(4-(4-methylpiperazin-1-yl)phenyl)-1H-pyrrolo[2,3-b]pyridin-3-yl)-2-methylphenyl)acrylamide 2,2,2-trifluoroacetate]"
5.00 to 6.00,6.30 to 7.00,1000 to 10000,4.00 to 6.00,≥ 7.00,1000 to 10000,< 5.00,"C=CC(=O)Nc1cc(-c2c(-c3ccc(N4CCN(C)CC4)cc3)[nH]c3ncc(C(=O)OC(C)C)cc23)c(C)cc1C [Example 202, isoproyl 3-(5-acrylamido-2,4-dimethylphenyl)-2-(4-(4-methylpiperazin-1-yl)phenyl)-1H-pyrrolo[2,3-b]pyridine-5-carboxylate 2,2,2-trifluoroacetate]"
≥ 7.00,≥ 7.00,500 to 1000,6.30 to 7.00,≥ 7.00,500 to 1000,4.00 to 6.00,"C=CC(=O)Nc1cc(-c2c(-c3ccc(N4CCN(C)CC4)cc3)[nH]c3ncc(C(=O)OC4COC4)cc23)ccc1C [Example 141, oxetan-3-yl 3-(3-acrylamido-4-methylphenyl)-2-(4-(4-methylpiperazin-1-yl)phenyl)-1H-pyrrolo[2,3-b]pyridine-5-carboxylate]"
6.30 to 7.00,6.30 to 7.00,1000 to 10000,4.00 to 6.00,≥ 7.00,1000 to 10000,4.00 to 6.00,"C=CC(=O)Nc1cc(-c2c(-c3cccc(CN4CCN(C(C)=O)CC4)c3)[nH]c3ncc(C(=O)OC(C)C)cc23)ccc1C [Example 186, isopropyl 2-(3-((4-acetylpiperazin-1-yl)methyl)phenyl)-3-(3-acrylamido-4-methylphenyl)-1H-pyrrolo[2,3-b]pyridine-5-carboxylate]"
≥ 7.00,≥ 7.00,500 to 1000,6.30 to 7.00,≥ 7.00,100 to 500,4.00 to 6.00,"C=CC(=O)Nc1cc(-c2c(-c3ccc(N4CCN(C)CC4)cc3)[nH]c3ncc(CO)cc23)ccc1C [Example 199, N-(5-(5-(hydroxymethyl)-2-(4-(4-methylpiperazin-1-yl)phenyl)-1H-pyrrolo[2,3-b]pyridin-3-yl)-2-methylphenyl)acrylamide 2,2,2-trifluoroacetate]"

# More lines, now with the values behind:
SMILES,pIC50 (HER2 INS YVMA),pIC50 (EGFR T790ML858R),GI50 [1] [nM],pIC50 (H1975),pIC50 (EGFR wt),GI50 [2] [nM],pIC50 (A431)
"C=CC(=O)Nc1cc(-c2c(-c3ccc(N4CCN(C)CC4)cc3)[nH]c3ncc(C(=O)NCCc4ccc(F)cc4)cc23)ccc1C [Example 124, 3-(3-acrylamido-4-methylphenyl)-N-(4-fluorophenethyl)-2-(4-(4-methylpiperazin-1-yl)phenyl)-1H-pyrrolo[2,3-b]pyridine-5-carboxamide]",6.30 to 7.00,≥ 7.00,100 to 500,6.00 to 6.30,≥ 7.00,500 to 1000,6.00 to 6.30
"C=CC(=O)Nc1cc(-c2c(-c3ccc(N4CCN(C)CC4)cc3)[nH]c3ncc(C(=O)NCCc4ccncc4)cc23)ccc1C [Example 123, 3-(3-acrylamido-4-methylphenyl)-2-(4-(4-methylpiperazin-1-yl)phenyl)-N-(2-(pyridin-4-yl)ethyl)-1H-pyrrolo[2,3-b]pyridine-5-carboxamide]",6.00 to 6.30,≥ 7.00,1000 to 10000,< 5.00,≥ 7.00,1000 to 10000,4.00 to 6.00
"C=CC(=O)Nc1cc(-c2c(-c3ccc(N4CCN(C)CC4)cc3)[nH]c3ncc(C(=O)NCc4ccncc4)cc23)ccc1C [Example 127, 3-(3-acrylamido-4-methylphenyl)-2-(4-(4-methylpiperazin-1-yl)phenyl)-N-(pyridin-4-ylmethyl)-1H-pyrrolo[2,3-b]pyridine-5-carboxamide]",≥ 7.00,≥ 7.00,1000 to 10000,4.00 to 6.00,≥ 7.00,1000 to 10000,4.00 to 6.00
"C=CC(=O)N1CCOc2ccc(-c3c(-c4ccc(CN(C)C)cc4)[nH]c4nccc(Cl)c34)cc21 [Example 102, 1-(6-(4-chloro-2-(4-((dimethylamino)methyl)phenyl)-1H-pyrrolo[2,3-b]pyridin-3-yl)-2H-benzo[b][1,4]oxazin-4(3H)-yl)prop-2-en-1-one]",≥ 7.00,≥ 7.00,100 to 500,6.30 to 7.00,≥ 7.00,100 to 500,4.00 to 6.00
"C=CC(=O)Nc1cc(-c2c(-c3ccc(N4CCN(C)CC4)cc3)[nH]c3ncc(C(=O)NCc4cccnc4)cc23)ccc1C [Example 128, 3-(3-acrylamido-4-methylphenyl)-2-(4-(4-methylpiperazin-1-yl)phenyl)-N-(pyridin-3-ylmethyl)-1H-pyrrolo[2,3-b]pyridine-5-carboxamide]",≥ 7.00,≥ 7.00,1000 to 10000,4.00 to 6.00,≥ 7.00,1000 to 10000,4.00 to 6.00
"C=CC(=O)Nc1cc(-c2c(-c3ccc(N4CCN(C)CC4)cc3)[nH]c3ncc(C(=O)NCc4ccc(NC(C)=O)cc4)cc23)ccc1C [Example 132, N-(4-acetamidobenzyl)-3-(3-acrylamido-4-methylphenyl)-2-(4-(4-methylpiperazin-1-yl)phenyl)-1H-pyrrolo[2,3-b]pyridine-5-carboxamide]",6.00 to 6.30,6.30 to 7.00,> 10000,< 5.00,≥ 7.00,> 10000,< 5.00
"C=CC(=O)Nc1cc(-c2c(-c3ccc(N4CCN(C)CC4)cc3)[nH]c3ncc(C(=O)NCc4ccccc4)cc23)ccc1C [Example 118, 3-(3-acrylamido-4-methylphenyl)-N-benzyl-2-(4-(4-methylpiperazin-1-yl)phenyl)-1H-pyrrolo[2,3-b]pyridine-5-carboxamide 2,2,2-trifluoroacetate]",≥ 7.00,≥ 7.00,100 to 500,6.00 to 6.30,≥ 7.00,100 to 500,6.00 to 6.30
